Results as given in article PMC12021911, “Comparative evaluation of antimicrobial peptides: effect on formation, metabolic activity and viability of Klebsiella pneumoniae biofilms” (Frontiers in Microbiology, 2025).
≈ marks a conversion by molar mass, not a printed value. Like-named read-outs stand apart in the source and are kept apart here. Bridge positions count the residues as written; N and C are the ends. Square brackets hold non-standard residues; d marks the D form. Peptide text beside a SMILES is read from it. * marks the point of attachment. X1 = CC[C@H](C)CCCCC(=O)*; Dab = NCC[C@H](N)C(=O)O

Tests used:
Type in all cases: cell-based, Klebsiella pneumoniae
K. pneumoniae IMT40061 [1] = assay: microbe, parasite or virus in culture
Experimental: (§1) Three different strains of K. pneumoniae were investigated in this study which were originally isolated from a human, a pig and a dog (Table 2) and characterized in previous studies ([Krieger et al., 2021]; [Krieger et al., 2022]). Minimum inhibitory concentration (MIC) values were determined according to EUCAST guidelines by microdilution test and are shown in Supplementary Table S1.
(§2) Table S1 Minimum inhibitory concentration (MIC) values of the three K. pneumoniae strains,
(§3) determined according to EUCAST guidelines by microdilution test.
(§4) MIC [µg/mL] of indicated antibiotics

[2] = test system: K. pneumoniae 42KC-108224-1; assay: microbe, parasite or virus in culture
Experimental: as §1, §2, §3, §4

K. pneumoniae 17349 = assay: microbe, parasite or virus in culture
Experimental: as §1, §2, §3, §4

K. pneumoniae IMT40061 [3] = assay: fluorescence assay on mature biofilms (SYTO 9 / propidium iodide); conditions: 24 h treatment of mature biofilm; at very high concentrations
Experimental: (§5) The proportion of living and dead bacteria was determined using the fluorescence assay FilmTracer™ LIVE/DEAD biofilm viability kit (L10316, Life Technologies GmbH, Darmstadt, Germany). A bacterial count of 2 × 10^7 CFU/mL was inoculated in 50% BHI broth, 100 μL were added to a 96-well plate in duplicate and plates were incubated for 22 h at 37°C. Wells containing only BHI broth were used as blank. After incubation, the supernatant was discarded and plates were washed three times with sterile PBS. […] After incubation for 24 h at 37°C and washing three times with sterile PBS, 50 μL filter-sterilized water containing 0.15 μL each of SYTO™ 9 stain and propidium iodide stain was added to each well. Plates were incubated for 20 min at room temperature in the dark. The staining solution was discarded and the plates were washed three times with sterile PBS. The fluorescence intensity of the SYTO™ 9 stain (λex = 470 nm, λem = 500 nm) and the propidium iodide stain (λex = 490 nm, λem = 635 nm) were measured on a BioTek Synergy H1 microplate reader and corrected for the blank values. The percentage of fluorescence intensity was calculated based on the negative control. The SYTO™ 9/propidium iodide ratio was calculated. The experiment was conducted at least three times.

[4] = test system: K. pneumoniae 42KC-108224-1; assay: as above; conditions: 64 μg/mL in PBS, 24 h on 22 h-old biofilm; mean, n ≥ 3
Experimental: as §5

[5] = Klebsiella pneumoniae, IMT40061, EUCAST guidelines, microdilution test, read-out: MIC
[6] = Klebsiella pneumoniae, 42KC1082241, EUCAST guidelines, microdilution test, read-out: MIC
[7] = Klebsiella pneumoniae, 17349, EUCAST guidelines, microdilution test, read-out: MIC
[8] = Klebsiella pneumoniae, 42KC1082241
[9] = EUCAST guidelines, microdilution test

MIC (K. pneumoniae IMT40061 [1]; [5]) [µg/mL]	MIC [2, 6] [µg/mL]	MIC (K. pneumoniae 17349; [7]) [µg/mL]	SMILES	further results
4 (≈ 6.83 µM)	< 0.5	< 0.5	NCC[C@H](O)C(=O)N[C@@H]1C[C@H](N)[C@@H](O[C@H]2O[C@H](CN)[C@@H](O)[C@H](O)[C@H]2O)[C@H](O)[C@H]1O[C@H]1O[C@H](CO)[C@@H](O)[C@H](N)[C@H]1O [Amikacin]	–
> 32	> 32	16 (≈ 45.8 µM)	CC1(C)S[C@@H]2[C@H](NC(=O)[C@H](N)c3ccccc3)C(=O)N2[C@H]1C(=O)O [Ampicillin]	–
> 16	< 0.25	< 0.25	C[C@H]1[C@H](NC(=O)/C(=N\OC(C)(C)C(=O)O)c2csc(N)n2)C(=O)N1S(=O)(=O)O [Aztreonam]	–
> 8	< 0.0625	< 0.0625	CO/N=C(\C(=O)N[C@@H]1C(=O)N2C(C(=O)O)=C(COC(C)=O)CS[C@H]12)c1csc(N)n1 [Cefotaxime]	–
> 32	< 0.25	< 0.25	CC(C)(O/N=C(\C(=O)N[C@@H]1C(=O)N2C(C(=O)[O-])=C(C[n+]3ccccc3)CS[C@H]12)c1csc(N)n1)C(=O)O [Ceftazidime]	–
> 32	2 (≈ 4.71 µM)	1 (≈ 2.36 µM)	CO/N=C(\C(=O)N[C@@H]1C(=O)N2C(C(=O)O)=C(COC(N)=O)CS[C@H]12)c1ccco1 [Cefuroxime]	–
–	–	–	CC[C@H](C)CCCCC(=O)N[C@@H](CCN)C(=O)N[C@H](C(=O)N[C@@H](CCN)C(=O)N[C@H]1CCNC(=O)[C@H]([C@@H](C)O)NC(=O)[C@H](CCN)NC(=O)[C@H](CCN)NC(=O)[C@H](CC(C)C)NC(=O)[C@@H](CC(C)C)NC(=O)[C@H](CCN)NC1=O)[C@@H](C)O [Colistin] (X1-[Dab]T[Dab][Dab][Dab][dL]L[Dab][Dab]T; lactam 4-C (inferred); N-terminus assumed)	MIC (K. pneumoniae IMT40061 [1]; [9]): < 0.0625 µg/mL; MIC [2, 9]: 0.25 µg/mL (≈ 0.214 µM); MIC (K. pneumoniae 17349; [9]): 0.25 µg/mL (≈ 0.214 µM)
4 (≈ 9 µM)	1 (≈ 2.25 µM)	0.5 (≈ 1.13 µM)	C[C@H]1c2cccc(O)c2C(=O)C2=C(O)[C@]3(O)C(=O)C(C(N)=O)=C(O)[C@@H](N(C)C)[C@@H]3[C@@H](O)[C@@H]21 [Doxycycline]	–
–	–	–	CC[C@H]1OC(=O)[C@H](C)[C@@H](O[C@H]2C[C@@](C)(OC)[C@@H](O)[C@H](C)O2)[C@H](C)[C@@H](O[C@@H]2O[C@H](C)C[C@H](N(C)C)[C@H]2O)[C@](C)(O)C[C@@H](C)C(=O)[C@H](C)[C@@H](O)[C@]1(C)O [Erythromycin]	living biofilm mass (SYTO™ 9) (K. pneumoniae IMT40061 [3]): 69%; fluorescence intensity of propidium iodide in percent (dead cells) [4]: 64%
0.5 (≈ 1.05 µM)	< 0.125	0.25 (≈ 0.523 µM)	CNC(C)C1CCC(N)C(OC2C(N)CC(N)C(OC3OCC(C)(O)C(NC)C3O)C2O)O1 (centres unmarked) [Gentamicin]	–
–	–	–	C[C@@H](O)[C@H]1C(=O)N2C(C(=O)O)=C(SCCN=CN)C[C@H]12 [Imipenem]	MIC (K. pneumoniae IMT40061 [1]; Klebsiella pneumoniae, IMT40061): < 0.125 µg/mL; MIC [2, 8]: < 0.125 µg/mL; MIC (K. pneumoniae 17349; Klebsiella pneumoniae, 17349): < 0.125 µg/mL

SMILES	MIC (K. pneumoniae IMT40061 [1]; [5]) [µg/mL]	MIC [2, 6] [µg/mL]	MIC (K. pneumoniae 17349; [7]) [µg/mL]	further results
O=C(O)c1cn(C2CC2)c2cc(N3CCNCC3)c(F)cc2c1=O [Ciprofloxacin]	> 4	–	–	MIC [2, 8]: 0.0625 µg/mL (≈ 0.189 µM); MIC (K. pneumoniae 17349; Klebsiella pneumoniae, 17349): < 0.0312 µg/mL
